{
  "source": "PubChem BioAssay (NCI)",
  "assay_in_all_cases": "inhibition of tumour cell growth, NCI panel, 384-well format",
  "key": {"OVCAR-4 ovarian": {"system": "OVCAR-4 ovarian"}, "RPMI-8226 leukemia": {"system": "RPMI-8226 leukemia"}, "ACHN renal": {"system": "ACHN renal"}, "UACC-257 melanoma": {"system": "UACC-257 melanoma"}, "SK-MEL-28 melanoma": {"system": "SK-MEL-28 melanoma"}, "SNB-19 CNS": {"system": "SNB-19 CNS"}, "MALME-3M melanoma": {"system": "MALME-3M melanoma"}, "SF-268 CNS": {"system": "SF-268 CNS"}, "KM12 colon": {"system": "KM12 colon"}, "HT29 colon": {"system": "HT29 colon"}, "MCF7 breast": {"system": "MCF7 breast"}, "NCI-H23 lung": {"system": "NCI-H23 lung"}, "OVCAR-5 ovarian": {"system": "OVCAR-5 ovarian"}, "EKVX NSCLC": {"system": "EKVX NSCLC"}, "HOP-62 NSCLC": {"system": "HOP-62 NSCLC"}, "SR leukemia": {"system": "SR leukemia"}, "TK-10 renal": {"system": "TK-10 renal"}, "COLO 205 colon": {"system": "COLO 205 colon"}, "SW-620 colon": {"system": "SW-620 colon"}, "CCRF-CEM leukemia": {"system": "CCRF-CEM leukemia"}, "CAKI-1 renal": {"system": "CAKI-1 renal"}, "OVCAR-3 ovarian": {"system": "OVCAR-3 ovarian"}, "M14 melanoma": {"system": "M14 melanoma"}, "HCT-116 colon": {"system": "HCT-116 colon"}, "MDA-MB-468 breast": {"system": "MDA-MB-468 breast"}, "UACC-62 melanoma": {"system": "UACC-62 melanoma"}, "786-0 renal": {"system": "786-0 renal"}, "SF-295 CNS": {"system": "SF-295 CNS"}, "IGROV1 ovarian": {"system": "IGROV1 ovarian"}, "UO-31 renal": {"system": "UO-31 renal"}},
  "note": "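Here, GI50 denotes the concentration required for 50% inhibition of growth. TGI: total growth inhibition.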",
  "data": [
    {"smiles": "Cc1cc(Nc2cc(N3CCN(C)CC3)nc(C#Cc3ccccc3)n2)n[nH]1", "values": [
      {"measurement": "TGI", "setting": "OVCAR-4 ovarian", "result": 20, "unit": "µM"},
      {"measurement": "GI50", "setting": "RPMI-8226 leukemia", "result": 3.24, "unit": "µM"},
      {"measurement": "TGI", "setting": "RPMI-8226 leukemia", "result": 13.4, "unit": "µM"},
      {"measurement": "GI50", "setting": "ACHN renal", "result": 1.23, "unit": "µM"},
      {"measurement": "TGI", "setting": "ACHN renal", "result": 7.68, "unit": "µM"},
      {"measurement": "GI50", "setting": "UACC-257 melanoma", "result": 3.77, "unit": "µM"},
      {"measurement": "TGI", "setting": "UACC-257 melanoma", "result": 14.3, "unit": "µM"},
      {"measurement": "GI50", "setting": "SK-MEL-28 melanoma", "result": 5.59, "unit": "µM"},
      {"measurement": "TGI", "setting": "SK-MEL-28 melanoma", "result": 18.8, "unit": "µM"},
      {"measurement": "GI50", "setting": "SNB-19 CNS", "result": 6.17, "unit": "µM"},
      {"measurement": "TGI", "setting": "SNB-19 CNS", "result": 19.3, "unit": "µM"},
      {"measurement": "GI50", "setting": "MALME-3M melanoma", "result": 2.57, "unit": "µM"},
      {"measurement": "TGI", "setting": "MALME-3M melanoma", "result": 11.8, "unit": "µM"},
      {"measurement": "GI50", "setting": "SF-268 CNS", "result": 4.58, "unit": "µM"},
      {"measurement": "TGI", "setting": "SF-268 CNS", "result": 16.9, "unit": "µM"},
      {"measurement": "GI50", "setting": "KM12 colon", "result": 0.334, "unit": "µM"},
      {"measurement": "TGI", "setting": "KM12 colon", "result": 10.4, "unit": "µM"},
      {"measurement": "GI50", "setting": "HT29 colon", "result": 3.95, "unit": "µM"},
      {"measurement": "TGI", "setting": "HT29 colon", "result": 14.8, "unit": "µM"},
      {"measurement": "GI50", "setting": "MCF7 breast", "result": 3.07, "unit": "µM"},
      {"measurement": "TGI", "setting": "MCF7 breast", "result": 15.1, "unit": "µM"},
      {"measurement": "GI50", "setting": "NCI-H23 lung", "result": 2.3, "unit": "µM"},
      {"measurement": "TGI", "setting": "NCI-H23 lung", "result": 10.9, "unit": "µM"},
      {"measurement": "GI50", "setting": "OVCAR-5 ovarian", "result": 3.53, "unit": "µM"},
      {"measurement": "TGI", "setting": "OVCAR-5 ovarian", "result": 15.2, "unit": "µM"},
      {"measurement": "GI50", "setting": "EKVX NSCLC", "result": 2.79, "unit": "µM"},
      {"measurement": "TGI", "setting": "EKVX NSCLC", "result": 12.7, "unit": "µM"},
      {"measurement": "GI50", "setting": "HOP-62 NSCLC", "result": 3.28, "unit": "µM"},
      {"measurement": "TGI", "setting": "HOP-62 NSCLC", "result": 13.5, "unit": "µM"},
      {"measurement": "GI50", "setting": "SR leukemia", "result": 1.36, "unit": "µM"},
      {"measurement": "TGI", "setting": "SR leukemia", "result": 2.75, "unit": "µM"},
      {"measurement": "GI50", "setting": "TK-10 renal", "result": 2.48, "unit": "µM"},
      {"measurement": "TGI", "setting": "TK-10 renal", "result": 15.2, "unit": "µM"},
      {"measurement": "GI50", "setting": "COLO 205 colon", "result": 3.73, "unit": "µM"},
      {"measurement": "TGI", "setting": "COLO 205 colon", "result": 14.5, "unit": "µM"},
      {"measurement": "GI50", "setting": "SW-620 colon", "result": 3.42, "unit": "µM"},
      {"measurement": "TGI", "setting": "SW-620 colon", "result": 12.5, "unit": "µM"},
      {"measurement": "GI50", "setting": "CCRF-CEM leukemia", "result": 2.19, "unit": "µM"},
      {"measurement": "TGI", "setting": "CCRF-CEM leukemia", "result": 7.01, "unit": "µM"},
      {"measurement": "GI50", "setting": "CAKI-1 renal", "result": 1.6, "unit": "µM"},
      {"measurement": "TGI", "setting": "CAKI-1 renal", "result": 7.03, "unit": "µM"},
      {"measurement": "GI50", "setting": "OVCAR-3 ovarian", "result": 2.12, "unit": "µM"},
      {"measurement": "TGI", "setting": "OVCAR-3 ovarian", "result": 13.4, "unit": "µM"},
      {"measurement": "GI50", "setting": "M14 melanoma", "result": 3.13, "unit": "µM"},
      {"measurement": "TGI", "setting": "M14 melanoma", "result": 16.5, "unit": "µM"},
      {"measurement": "GI50", "setting": "HCT-116 colon", "result": 2.94, "unit": "µM"},
      {"measurement": "TGI", "setting": "HCT-116 colon", "result": 11.9, "unit": "µM"},
      {"measurement": "GI50", "setting": "MDA-MB-468 breast", "result": 1.51, "unit": "µM"},
      {"measurement": "TGI", "setting": "MDA-MB-468 breast", "result": 3.55, "unit": "µM"},
      {"measurement": "GI50", "setting": "UACC-62 melanoma", "result": 3.1, "unit": "µM"},
      {"measurement": "TGI", "setting": "UACC-62 melanoma", "result": 14.8, "unit": "µM"},
      {"measurement": "GI50", "setting": "786-0 renal", "result": 3.75, "unit": "µM"},
      {"measurement": "TGI", "setting": "786-0 renal", "result": 15, "unit": "µM"},
      {"measurement": "GI50", "setting": "SF-295 CNS", "result": 2.95, "unit": "µM"},
      {"measurement": "TGI", "setting": "SF-295 CNS", "result": 13, "unit": "µM"},
      {"measurement": "GI50", "setting": "IGROV1 ovarian", "result": 0.607, "unit": "µM"},
      {"measurement": "TGI", "setting": "IGROV1 ovarian", "result": 3.28, "unit": "µM"},
      {"measurement": "GI50", "setting": "UO-31 renal", "result": 2.2, "unit": "µM"},
      {"measurement": "TGI", "setting": "UO-31 renal", "result": 8.13, "unit": "µM"}
    ]}
  ]
}
